The values below are quoted from earlier work in patent US9950112B2 (priority 2010, dated 2018).

For series [1] the following is noted: propofol concentration, human surgical patients, general anesthesia.
The conditions of series [2]: morphine during early resuscitation following serious injuries; reduced from 76%.

With `CC(C)c1cccc(C(C)C)c1O` [propofol], in series [1], the EC50 for awakening was 1.07 ± 0.13 µg/mL and the EC50 for orientation is 0.95 ± 0.19 µg/mL.

Take `CN1CC[C@]23c4c5ccc(O)c4O[C@H]2[C@@H](O)C=C[C@H]3[C@H]1C5` [morphine]: the “incidence of post-traumatic stress disorder (PTSD)” value in series [2] is on record as 61%.
